From PubChem BioAssay AID2060493 (Molecular Pharmacology Branch, DTP, NCI, 2025)
pIC50: −log10 of the molar value.

Tested on: 616215-338-R-J1-PDC tumor spheroids, viability
Assay: Anticancer human tumor 616215-338-R-J1-PDC patient-derived colon adenocarcinoma cell line growth inhibition [GQUAD]
Details: spheroids with HUVEC and MSC; for pIC50: curve of first compound; for viability, T/C: stronger effect = lower value; active = viability on the fitted dose curve at most 10% of control; inactive = the rest
How it was run: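 Tumor cells were grown as complex spheroids with HUVEC endothelial cells and mesenchymal stem cells as stroma. G-quadruplex stabilizers were combined with targeted agents over half-log dilutions from near the clinical Cmax, or from 10 microM.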

[1] = second compound 0.0316 µM, first compound 0.0316 µM
[2] = second compound 0.0316 µM, first compound 0.316 µM
[3] = second compound 0.1 µM, first compound 0.0316 µM
[4] = second compound 0.1 µM, first compound 0.316 µM
[5] = second compound 0.316 µM, first compound 0.0316 µM
[6] = second compound 0.316 µM, first compound 0.316 µM
[7] = second compound 1 µM, first compound 0.0316 µM
[8] = second compound 1 µM, first compound 0.316 µM
[9] = second compound 3.16 µM, first compound 0.0316 µM
[10] = second compound 3.16 µM, first compound 0.316 µM
[11] = second compound 10 µM, first compound 0.0316 µM
[12] = second compound 10 µM, first compound 0.316 µM
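Note: spheroids exposed to agents for 7 days before readout.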
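Throughout, for viability, T/C: percent viability relative to DMSO vehicle control wells taken as 100%.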

Cn1ncnc1[C@H]1c2n[nH]c(=O)c3cc(F)cc(c23)N[C@@H]1c1ccc(F)cc1 + Cc1[nH]c2ccc(F)cc2c1-c1nc2c3cccnc3c3ncccc3c2[nH]1
inactive: viability, T/C (second compound 0.0316 µM, first compound 0.000999 µM) 104% | viability, T/C (second compound 0.0316 µM, first compound 0.00316 µM) 98.2% | viability, T/C (second compound 0.0316 µM, first compound 0.00999 µM) 97% | viability, T/C [1] 92.5% | viability, T/C (second compound 0.0316 µM, first compound 0.0999 µM) 97.1% | viability, T/C [2] 94.7% | viability, T/C (second compound 0.1 µM, first compound 0.000999 µM) 106% | viability, T/C (second compound 0.1 µM, first compound 0.00316 µM) 89.1% | viability, T/C (second compound 0.1 µM, first compound 0.00999 µM) 94.2% | viability, T/C [3] 102% | viability, T/C (second compound 0.1 µM, first compound 0.0999 µM) 105% | viability, T/C [4] 87.4% | viability, T/C (second compound 0.316 µM, first compound 0.000999 µM) 92.7% | viability, T/C (second compound 0.316 µM, first compound 0.00316 µM) 103% | viability, T/C (second compound 0.316 µM, first compound 0.00999 µM) 92.9% | viability, T/C [5] 103% | viability, T/C (second compound 0.316 µM, first compound 0.0999 µM) 83.3% | viability, T/C [6] 95.3% | viability, T/C (second compound 1 µM, first compound 0.000999 µM) 100% | viability, T/C (second compound 1 µM, first compound 0.00316 µM) 95.7% | viability, T/C (second compound 1 µM, first compound 0.00999 µM) 91.2% | viability, T/C [7] 104% | viability, T/C (second compound 1 µM, first compound 0.0999 µM) 96% | viability, T/C [8] 95.6% | viability, T/C (second compound 3.16 µM, first compound 0.000999 µM) 101% | viability, T/C (second compound 3.16 µM, first compound 0.00316 µM) 97.3% | viability, T/C (second compound 3.16 µM, first compound 0.00999 µM) 85.6% | viability, T/C [9] 93.2% | viability, T/C (second compound 3.16 µM, first compound 0.0999 µM) 106% | viability, T/C [10] 87.3% | viability, T/C (second compound 10 µM, first compound 0.000999 µM) 93.3% | viability, T/C (second compound 10 µM, first compound 0.00316 µM) 95.4% | viability, T/C (second compound 10 µM, first compound 0.00999 µM) 88% | viability, T/C [11] 78.5% | viability, T/C (second compound 10 µM, first compound 0.0999 µM) 116% | viability, T/C [12] 78.6%
< 6.50: pIC50 (second compound 0.0316 µM) | pIC50 (second compound 0.1 µM) | pIC50 (second compound 0.316 µM) | pIC50 (second compound 1 µM) | pIC50 (second compound 3.16 µM) | pIC50 (second compound 10 µM)

COc1cccc2c1C(=O)c1c(O)c3c(c(O)c1C2=O)CC(O)(C(=O)CO)CC3OC1CC(N)C(O)C(C)O1 (centres undefined) + Cc1[nH]c2ccc(F)cc2c1-c1nc2c3cccnc3c3ncccc3c2[nH]1
inactive: viability, T/C [1] 108% | viability, T/C (second compound 0.0316 µM, first compound 0.1 µM) 88.2% | viability, T/C [2] 58.6% | viability, T/C (second compound 0.0316 µM, first compound 1 µM) 39.3% | viability, T/C (second compound 0.0316 µM, first compound 3.16 µM) 38.8% | viability, T/C [3] 96.8% | viability, T/C (second compound 0.1 µM, first compound 0.1 µM) 92.8% | viability, T/C [4] 46.3% | viability, T/C (second compound 0.1 µM, first compound 1 µM) 41.5% | viability, T/C (second compound 0.1 µM, first compound 3.16 µM) 21.6% | viability, T/C [5] 105% | viability, T/C (second compound 0.316 µM, first compound 0.1 µM) 75.5% | viability, T/C [6] 53.7% | viability, T/C (second compound 0.316 µM, first compound 1 µM) 49% | viability, T/C (second compound 0.316 µM, first compound 3.16 µM) 18.7% | viability, T/C [7] 91.7% | viability, T/C (second compound 1 µM, first compound 0.1 µM) 91.2% | viability, T/C [8] 71.6% | viability, T/C (second compound 1 µM, first compound 1 µM) 44.5% | viability, T/C (second compound 1 µM, first compound 3.16 µM) 27.6% | viability, T/C [9] 89.2% | viability, T/C (second compound 3.16 µM, first compound 0.1 µM) 84.6% | viability, T/C [10] 50% | viability, T/C (second compound 3.16 µM, first compound 1 µM) 39% | viability, T/C (second compound 3.16 µM, first compound 3.16 µM) 23.4% | viability, T/C [11] 103% | viability, T/C (second compound 10 µM, first compound 0.1 µM) 76.2% | viability, T/C [12] 55.6% | viability, T/C (second compound 10 µM, first compound 1 µM) 54.8% | viability, T/C (second compound 10 µM, first compound 3.16 µM) 20.1%
6.21: pIC50 (second compound 10 µM)
6.11: pIC50 (second compound 0.0316 µM)
active: viability, T/C (second compound 0.0316 µM, first compound 10 µM) 2.47% | viability, T/C (second compound 0.1 µM, first compound 10 µM) 4% | viability, T/C (second compound 0.316 µM, first compound 10 µM) 2.01% | viability, T/C (second compound 1 µM, first compound 10 µM) 2.3% | viability, T/C (second compound 3.16 µM, first compound 10 µM) 1.17% | viability, T/C (second compound 10 µM, first compound 10 µM) 1.64%
6.03: pIC50 (second compound 1 µM)
6.26: pIC50 (second compound 0.316 µM)
6.30: pIC50 (second compound 0.1 µM) | pIC50 (second compound 3.16 µM)
